One may read the IC50 as the concentration at which inhibition is half-maximal.

The source of these data is PMC8049054, “Systematic Assessment of Fragment Identification for Multitarget Drug Design” (Chemmedchem, 2021).

One test deals with T1, leukotriene A4 hydrolase (LTA4H) (Homo sapiens, UniProt P09960).
T1 construct: made in house; host or cells: E. coli BL21 (DE3)
T1 sequence (P09960 1-611): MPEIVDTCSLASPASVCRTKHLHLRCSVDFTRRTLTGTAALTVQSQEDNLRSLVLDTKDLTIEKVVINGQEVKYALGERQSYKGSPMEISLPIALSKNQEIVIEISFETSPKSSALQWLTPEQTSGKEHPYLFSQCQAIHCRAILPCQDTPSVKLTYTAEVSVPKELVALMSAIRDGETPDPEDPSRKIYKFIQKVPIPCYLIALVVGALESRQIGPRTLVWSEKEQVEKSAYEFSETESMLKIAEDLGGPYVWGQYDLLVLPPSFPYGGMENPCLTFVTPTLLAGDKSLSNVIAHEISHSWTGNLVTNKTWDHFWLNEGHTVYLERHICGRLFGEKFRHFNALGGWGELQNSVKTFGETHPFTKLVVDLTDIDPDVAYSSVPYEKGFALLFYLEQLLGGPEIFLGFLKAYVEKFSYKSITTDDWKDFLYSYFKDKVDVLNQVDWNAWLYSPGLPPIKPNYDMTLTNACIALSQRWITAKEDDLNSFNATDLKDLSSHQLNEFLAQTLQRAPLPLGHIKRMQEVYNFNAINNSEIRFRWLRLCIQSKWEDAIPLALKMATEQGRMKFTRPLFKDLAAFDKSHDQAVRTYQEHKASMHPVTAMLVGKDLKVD
The experiment in a line: LTA4H activity assay (fluorogenic substrate Arg-AMC). The test is classed as biochemical. The conditions noted are these: ligand efficiency calculated from IC50. As for the experimental part: (§1) For hit validation, we employed secondary assays with orthogonal readouts to confirm fragment activities. Biochemical activity assays were chosen for the enzymes sEH, LTA4H, and 5‐LOX. […] RXRα and FXR modulation was assessed in cell‐based hybrid reporter gene assays. All ten compounds were tested at a single concentration of 500 μM in the sEH and LTA4H activity assays and with a concentration of 100 μM on 5‐LOX, RXRα, and FXR. Fragments showing an inhibition greater than 50 % (sEH‐H and LTA4H) or greater than 70 % (5‐LOX) as well as the hits determined in the DSF experiments were further characterized in full concentration‐response curves between 0.1 and 1000 μM. […] As alternative cell‐free assay we employed isothermal titration calorimetry (ITC) to determine binding affinity of the fragments towards the LBDs of both nuclear receptors. ITC was performed with a protein concentration of 50 μM and compound concentrations of 250 μM.
(§2) The 10 fragments showing dual activity in the DSF experiments were validated by functional assay screening with a fixed concentration of 500 µM in case of sEH-H and LTA4H, 100 µM in case of 5-LOX and 30 µM, 10 µM and 5 µM in case of FXR and […]
(§3) % (5-LOX) as well as the hits determined in the DSF experiments were further measured with concentrations between 1000 µM and 0.1 µM (sEH-H and LTA4H) and between 300 µM and 1 µM (5-LOX). The sEH and LTA4H activity assays were performed as triplicate and repeated 3 times. The 5-LOX activity assay was performed with one point per concentration and repeated 3 times Raw data was first analyzed in Microsoft Office Excel (2013), before IC50 curves were plotted and further analyzed using GraphPad Prism 7 and GraphPad Prism 8 for the shown graphs .
The eight approved drugs were measured in the orthogonal assay systems analogous to the fragments. The approved drugs were […]
For the sEH-H and LTA4H, they were measured as triplicate in concentrations between 1000 µM and 1 µM and each measurement was repeated three times. […]
(§4) Raw data was processed according to the fragments. […]
The LTA4H activity assay was performed adapted from Hiesinger et al.3.As in the sEH-H measurement 1 µl of compound dilution in DMSO or pure DMSO (for the positive and negative control) was placed in a black 96-well plate (Thermo Scientific™ Nunc™ F96 MicroWell™ Black Polystyrene Plate) and then 89 µl of protein-mix or buffer mix (without protein as negative control) were added and incubated for 30 min at room temperature.
Take `CCCCOc1cc(C(=O)OC)ccc1N` [Compound 3]: the “LTA4H LE” value was 0.39 kcal/mol.

`Oc1ccc(-c2ccc(F)cc2F)cc1` [Compound 9]: the “LTA4H LE” value is given as 0.40 kcal/mol.

As for `Fc1ccc(-c2c[nH]c3ccccc23)cc1` [Compound 10], the “LTA4H LE” value is 0.31 kcal/mol.

Staying with this test, now noted: mean±standard deviation of three independent experiments.
On to `CCCCOc1cc(C(=O)OC)ccc1N` [Compound 3], for which the 50% inhibitory concentration (IC50) amounted to 24.6 ± 3.2 µM.

Take `Oc1ccc(Cc2ccccc2)cc1` [Compound 4]: the IC50 turned out to be 3 ± 0.5 µM.

On to `Oc1ccc2cc[nH]c2c1` [Compound 5], for which the IC50 was more than 300 µM.

For `CCN(Cc1ccccc1)c1ccccc1` [Compound 7], the IC50 was more than 300 µM.

As for `Oc1ccc(-c2ccc(F)cc2F)cc1` [Compound 9], the IC50 is 36.2 ± 7.6 µM.

As for `Fc1ccc(-c2c[nH]c3ccccc23)cc1` [Compound 10], the IC50 was 255 ± 24.9 µM.

The next test concerns the target T2, 5‐lipoxygenase (5‐LOX) (Homo sapiens, UniProt P09917).
T2 construct: made in house; host or cells: E. coli BL21 (DE3)
T2 sequence (P09917 1-674): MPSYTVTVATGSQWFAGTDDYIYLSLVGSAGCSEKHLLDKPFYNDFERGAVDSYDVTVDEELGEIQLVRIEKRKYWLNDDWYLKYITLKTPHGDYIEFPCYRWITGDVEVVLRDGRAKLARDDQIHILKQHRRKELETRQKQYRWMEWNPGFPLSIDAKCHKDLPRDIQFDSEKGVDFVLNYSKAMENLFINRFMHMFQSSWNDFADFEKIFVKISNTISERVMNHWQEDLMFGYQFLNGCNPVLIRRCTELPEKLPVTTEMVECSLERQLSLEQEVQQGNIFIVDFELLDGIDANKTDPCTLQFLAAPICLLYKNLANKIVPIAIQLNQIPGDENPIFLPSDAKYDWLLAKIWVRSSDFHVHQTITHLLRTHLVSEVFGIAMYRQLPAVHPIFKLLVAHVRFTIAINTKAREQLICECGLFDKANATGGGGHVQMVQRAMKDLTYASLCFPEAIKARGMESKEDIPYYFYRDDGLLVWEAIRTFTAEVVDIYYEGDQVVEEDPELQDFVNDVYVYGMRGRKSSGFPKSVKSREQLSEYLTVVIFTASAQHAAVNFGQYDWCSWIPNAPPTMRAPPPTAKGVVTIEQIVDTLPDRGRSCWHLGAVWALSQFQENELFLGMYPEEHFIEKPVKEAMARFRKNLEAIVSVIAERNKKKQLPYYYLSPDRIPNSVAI
The experiment in a line: 5-LOX activity assay (HPLC detection of product formation). The test is classed as biochemical. The conditions noted are these: ligand efficiency calculated from IC50. As for the experimental part: as §1, §2, §3
The eight approved drugs were measured in the orthogonal assay systems analogous to the fragments. […]
For the 5-LOX they […]
were measured as single point measurement in three different experiments with concentrations between 300 µM and 1 µM. For […]
as §4
For the molecule `Cc1cc(=O)n(-c2ccc(C)c(C)c2)[nH]1` [Compound 2], the “5‐LOX LE” value is reported as 0.42 kcal/mol.

Consider `Oc1ccc2cc[nH]c2c1` [Compound 5], for which the “5‐LOX LE” value was 0.64 kcal/mol.

Take `Clc1ccc2c(c1)Nc1ccccc1CC2` [Compound 8]: the “5‐LOX LE” value was 0.44 kcal/mol.

On to `Oc1ccc(-c2ccc(F)cc2F)cc1` [Compound 9], for which the “5‐LOX LE” value was 0.38 kcal/mol.

For `Fc1ccc(-c2c[nH]c3ccccc23)cc1` [Compound 10], the “5‐LOX LE” value is given as 0.36 kcal/mol.

The test is the same for the next values; noted with them: mean±standard deviation of three independent experiments.
Regarding `Cc1cc(=O)n(-c2ccc(C)c(C)c2)[nH]1` [Compound 2], the IC50 was determined as 21.2 ± 7.3 µM.

Consider `Oc1ccc2cc[nH]c2c1` [Compound 5], for which the IC50 worked out at 19.9 ± 2.4 µM.

Consider `CCN(Cc1ccccc1)c1ccccc1` [Compound 7], for which the IC50 turned out to be 118 ± 45.1 µM.

On to `Clc1ccc2c(c1)Nc1ccccc1CC2` [Compound 8], for which the IC50 stood at 6.5 ± 2.2 µM.

For the molecule `Oc1ccc(-c2ccc(F)cc2F)cc1` [Compound 9], the 50% inhibitory concentration (IC50) turned out to be 64.6 ± 26.4 µM.

Take `Fc1ccc(-c2c[nH]c3ccccc23)cc1` [Compound 10]: the half-maximal inhibitory concentration (IC50) is 54.3 ± 19.7 µM.
